Source: patent publication US20250136577A1, “HETEROCYCLIC DERIVATIVES AS MALT1 INHIBITORS” (C4X Discovery Limited, priority 2022, published 2025)

Columns and labels:
[1] = biological target: FL hMALT1 enzyme (Homo sapiens (Human), UniProt Q9UDY8); assay: MALT1 Protease Assay 2 (Assay 2), higher sensitivity, cleavage of fluorogenic tetrapeptide substrate; format: biochemical; conditions: FL hMALT1 1-10 nM, Ac-LVSR-AMC 100 μM, 0.7 M sodium citrate, 30 min preincubation, 60 min read
Protocol: MALT1 Protease Assay 2 (Assay 2)
(§1) MALT1 protease activity was assessed in vitro by measuring the cleavage of a fluorogenic tetrapeptide substrate.
For a higher sensitivity assay, commercially available FL hMALT1 enzyme (Abcam, 1-10 nM) was incubated with substrate (Ac-LVSR-AMC, 100 μM) in reaction buffer comprising 50 mM HEPES (pH7.0), 25 mM KCl, 0.1% (v/v) CHAPS, 1 mM TCEP and 0.7 M sodium citrate.
(§2) Test compounds dissolved in DMSO were dispensed into assay plates (384-well, black, shallow ProxiPlates). 7 μl enzyme solution was added and incubated at room temperature for 30 minutes to allow compound binding to occur. 2 μl substrate solution was then added and the fluorescence (excitation 360 nm, emission 460 nm) read every 15 minutes using a suitable plate reader. Final assay DMSO concentration was 1%. Linearity over 60 minutes was confirmed, and assay signal was calculated by subtracting raw counts at time 0 from those at 60 minutes. % inhibition was calculated for each well, using no enzyme for 100% inhibition controls and no compound for 0% inhibition controls. IC50 values were calculated using GraphPad Prism using a 4-parameter non-linear regression curve fit.

[2] = biological target: MALT1-GS-Ub (6-His-hMALT-1 residues 339-715 fused to ubiquitin) (Homo sapiens (Human), UniProt Q9UDY8); assay: MALT1 Protease Assay 1 (Assay 1), cleavage of fluorogenic tetrapeptide substrate; format: biochemical; conditions: MALT1-GS-Ub 300-600 nM, Ac-LVSR-AMC 100 μM, 30 min preincubation, 60 min read
Protocol: MALT1 Protease Assay 1 (Assay 1)
as §1
A protein (MALT1-GS-Ub) comprising 6-His-hMALT-1 (residues 339-715), fused to ubiquitin with an 8× GGS linker, was expressed in E. coli, and purified using chitin resin to remove contaminants followed by affinity chromatography purification and size-exclusion chromatography, according to standard protocols.
Briefly, MALT1-GS-Ub (300-600 nM) was incubated with substrate (Ac-LVSR-AMC, 100 μM) in reaction buffer comprising 50 mM HEPES (pH7.0), 25 mM KCl, 0.1% (v/v) CHAPS and 1 mM TCEP.
as §2

FL hMALT1 enzyme, sequence (Q9UDY8 whole entry): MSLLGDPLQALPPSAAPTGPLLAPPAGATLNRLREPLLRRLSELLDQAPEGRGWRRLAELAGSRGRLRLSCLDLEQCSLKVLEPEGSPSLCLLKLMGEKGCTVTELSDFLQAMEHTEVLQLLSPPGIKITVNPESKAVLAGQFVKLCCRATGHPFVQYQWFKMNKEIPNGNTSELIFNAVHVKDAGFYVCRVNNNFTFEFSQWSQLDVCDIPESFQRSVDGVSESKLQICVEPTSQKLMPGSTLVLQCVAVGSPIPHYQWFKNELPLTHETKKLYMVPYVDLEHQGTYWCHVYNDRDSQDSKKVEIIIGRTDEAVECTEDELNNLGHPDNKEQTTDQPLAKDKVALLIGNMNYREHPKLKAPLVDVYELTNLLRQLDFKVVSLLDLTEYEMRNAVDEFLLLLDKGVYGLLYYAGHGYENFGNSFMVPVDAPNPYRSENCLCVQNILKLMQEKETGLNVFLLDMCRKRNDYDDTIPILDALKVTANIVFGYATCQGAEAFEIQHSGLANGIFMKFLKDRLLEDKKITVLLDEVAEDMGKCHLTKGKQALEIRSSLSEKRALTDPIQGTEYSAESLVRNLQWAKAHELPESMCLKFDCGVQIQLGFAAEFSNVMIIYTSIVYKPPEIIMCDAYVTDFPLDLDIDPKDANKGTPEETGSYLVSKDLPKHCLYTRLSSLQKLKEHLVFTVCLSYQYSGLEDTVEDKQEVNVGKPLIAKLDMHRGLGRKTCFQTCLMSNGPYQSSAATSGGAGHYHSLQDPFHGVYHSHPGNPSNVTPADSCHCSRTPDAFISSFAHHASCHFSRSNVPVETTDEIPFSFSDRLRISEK
MALT1-GS-Ub (6-His-hMALT-1 residues 339-715 fused to ubiquitin), sequence (Q9UDY8 other isoform, or with tags, fused parts or gaps): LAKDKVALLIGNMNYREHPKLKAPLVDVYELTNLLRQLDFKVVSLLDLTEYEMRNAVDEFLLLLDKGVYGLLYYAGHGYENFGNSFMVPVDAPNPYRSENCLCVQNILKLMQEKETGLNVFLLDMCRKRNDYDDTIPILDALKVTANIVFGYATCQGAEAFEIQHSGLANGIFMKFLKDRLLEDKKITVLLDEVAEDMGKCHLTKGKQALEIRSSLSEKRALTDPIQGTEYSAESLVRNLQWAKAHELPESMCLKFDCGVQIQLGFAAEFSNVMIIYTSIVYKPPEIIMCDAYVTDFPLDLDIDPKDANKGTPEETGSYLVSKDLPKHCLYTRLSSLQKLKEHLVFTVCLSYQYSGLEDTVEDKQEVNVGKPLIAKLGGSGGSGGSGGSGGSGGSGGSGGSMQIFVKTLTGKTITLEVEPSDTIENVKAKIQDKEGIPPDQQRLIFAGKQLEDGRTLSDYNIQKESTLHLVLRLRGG

Row | SMILES | IC50 [1] [µM] | IC50 [2] [µM]
1 | O=C(Nc1cnc(-n2nccn2)c(Cl)c1)N1C[C@@H]2CCCN2c2c(Br)cncc21 [Example 25, (S)-1-Bromo-N-(5-chloro-6-(2H-1,2,3-triazol-2-yl)pyridin-3-yl)-6a,7,8,9-tetrahydropyrido[3,4-e] pyrrolo[1,2-a]pyrazine-5 (6H)-carboxamide] | 0.23 | 1.06
2 | C#CC1CN(C(=O)Nc2cnc(-n3nccn3)c(Cl)c2)c2cccc(Br)c2O1 (centres unmarked) [Example 20, 8-Bromo-N-(5-chloro-6-(2H-1,2,3-triazol-2-yl)pyridin-3-yl)-2-ethynyl-2,3-dihydro-4H-benzo[b][1,4]oxazine-4-carboxamide] | 0.59 | 3.3
3 | CN1c2c(Br)cncc2N(C(=O)Nc2cnc(-n3nccn3)c(Cl)c2)CC1(C)C [Example 31, 8-Bromo-N-(5-chloro-6-(2H-1,2,3-triazol-2-yl)pyridin-3-yl)-1,2,2-trimethyl-2,3-dihydropyrido[3,4-b]pyrazine-4 (1H)-carboxamide] | 0.26 | 3
4 | N#Cc1cccc2c1CCCN2C(=O)Nc1cnc(-n2nccn2)c(Cl)c1 [Example 7, N-(5-Chloro-6-(2H-1,2,3-triazol-2-yl)pyridin-3-yl)-5-cyano-3,4-dihydroquinoline-1 (2H)-carboxamide] | 1.2 | 6.9
5 | O=C(Nc1cnc(-n2nccn2)c(Cl)c1)N1CCCc2c(Br)cncc21 [Example 17, 5-Bromo-N-(5-chloro-6-(2H-1,2,3-triazol-2-yl)pyridin-3-yl)-3,4-dihydro-1,7-naphthyridine-1 (2H)-carboxamide] | 1.5 | 0.5
6 | O=C(Nc1cnc(-n2nccn2)c(C(F)(F)F)c1)N1CCCc2c(-c3ncco3)cccc21 [Example 9, N-(6-(2H-1,2,3-Triazol-2-yl)-5-(trifluoromethyl)pyridin-3-yl)-5-(oxazol-2-yl)-3,4-dihydroquinoline-1 (2H)-carboxamide] | 2 | 4.6
7 | CN1CCN(C(=O)Nc2cnc(-n3nccn3)c(Cl)c2)c2cncc(Br)c21 [Example 29, 8-Bromo-N-(5-chloro-6-(2H-1,2,3-triazol-2-yl)pyridin-3-yl)-1-methyl-2,3-dihydropyrido[3,4-b]pyrazine-4 (1H)-carboxamide] | > 3 | 3.8
8 | O=C(Nc1cnc(-n2nccn2)c(Cl)c1)N1CC(C(F)(F)F)Nc2c(Br)cncc21 (centres unmarked) [Example 37, 8-Bromo-N-(5-chloro-6-(2H-1,2,3-triazol-2-yl)pyridin-3-yl)-2-(trifluoromethyl)-2,3-dihydropyrido[3,4-b]pyrazine-4 (1H)-carboxamide] | 0.54 | 3.9
9 | O=C(Nc1cnc(-n2nccn2)c(Cl)c1)N1CC2CCCCN2c2c(Br)cncc21 (centres unmarked) [Example 28, 1-Bromo-N-(5-chloro-6-(2H-1,2,3-triazol-2-yl)pyridin-3-yl)-6,6a,7,8,9,10-hexahydro-5H-dipyrido[1,2-a: 3′,4′-e] pyrazine-5-carboxamide] | 1.1 | 7.3
10 | CC1(C)CN(C(=O)Nc2cnc(-n3nccn3)c(Cl)c2)c2cncc(C3CC3)c2O1 [Example 24, N-(5-Chloro-6-(2H-1,2,3-triazol-2-yl)pyridin-3-yl)-8-cyclopropyl-2,2-dimethyl-2,3-dihydro-4H-pyrido[4,3-b][1,4]oxazine-4-carboxamide] | 0.34 | 2.5
11 | CC1(C)CN(C(=O)Nc2cnc(-n3nccn3)c(Cl)c2)c2cccc(Br)c2O1 [Example 13, 8-Bromo-N-(5-chloro-6-(2H-1,2,3-triazol-2-yl)pyridin-3-yl)-2,2-dimethyl-2,3-dihydro-4H-benzo[b][1,4]oxazine-4-carboxamide] | 1.3 | 1.3
12 | O=C(Nc1cnc(-n2nccn2)c(Cl)c1)N1CC(C(F)(F)F)Oc2c(Br)cncc21 (single isomer, unassigned) [Example 39, 8-Bromo-N-(5-chloro-6-(2H-1,2,3-triazol-2-yl)pyridin-3-yl)-2-(trifluoromethyl)-2,3-dihydro-4H-pyrido[4,3-b][1,4]oxazine-4-carboxamide] | 1.2 | 5.8
13 | O=C(Nc1cnc(-n2nccn2)c(C(F)(F)F)c1)N1CCCc2c(-c3nccs3)cccc21 [Example 10, N-(6-(2H-1,2,3-Triazol-2-yl)-5-(trifluoromethyl)pyridin-3-yl)-5-(thiazol-2-yl)-3,4-dihydroquinoline-1 (2H)-carboxamide] | 1 | 1.5
14 | O=C(Nc1cnc(-n2nccn2)c(C(F)(F)F)c1)N1CCCc2c(-c3nncs3)cccc21 [Example 14, N-(6-(2H-1,2,3-triazol-2-yl)-5-(trifluoromethyl)pyridin-3-yl)-5-(1,3,4-thiadiazol-2-yl)-3,4-dihydroquinoline-1 (2H)-carboxamide] | 8.2 | 8.5
15 | CC1(C)Cc2c(Br)cccc2N(C(=O)Nc2cnc(-n3nccn3)c(Cl)c2)C1 [Example 15, 5-Bromo-N-(5-chloro-6-(2H-1,2,3-triazol-2-yl)pyridin-3-yl)-3,3-dimethyl-3,4-dihydroquinoline-1 (2H)-carboxamide] | 0.44 | 1.3
16 | C[C@@H]1CN(C(=O)Nc2cnc(-n3nccn3)c(C(F)(F)F)c2)c2cccc(Br)c2[C@@H]1C (relative stereo) [Example 11, cis-N-(6-(2H-1,2,3-Triazol-2-yl)-5-(trifluoromethyl)pyridin-3-yl)-5-bromo-3,4-dimethyl-3,4-dihydroquinoline-1 (2H)-carboxamide] | 1.2 | 4.1
17 | O=C(Nc1cnc(-n2nccn2)c(Cl)c1)N1CC(C(F)(F)F)Oc2c(Br)cncc21 (centres unmarked) [Example 38, 8-Bromo-N-(5-chloro-6-(2H-1,2,3-triazol-2-yl)pyridin-3-yl)-2-(trifluoromethyl)-2,3-dihydro-4H-pyrido[4,3-b][1,4]oxazine-4-carboxamide] | 0.12 | 0.73
18 | CC1CN(C(=O)Nc2cnc(-n3nccn3)c(C(F)(F)F)c2)c2cccc(Br)c2O1 (centres unmarked) [Example 5, N-(6-(2H-1,2,3-Triazol-2-yl)-5-(trifluoromethyl)pyridin-3-yl)-8-bromo-2-methyl-2,3-dihydro-4H-benzo[b][1,4]oxazine-4-carboxamide] | 0.12 | 3.3
19 | CN1CCN(C(=O)Nc2cnc(-n3nccn3)c(Cl)c2)c2cccc(Br)c21 [Example 16, 5-Bromo-N-(5-chloro-6-(2H-1,2,3-triazol-2-yl)pyridin-3-yl)-4-methyl-3,4-dihydroquinoxaline-1 (2H)-carboxamide] | 0.9 | 2.5
20 | O=C(Nc1cnc(-n2nccn2)c(Cl)c1)N1CCCc2c(C3CC3)cncc21 [Example 22, N-(5-Chloro-6-(2H-1,2,3-triazol-2-yl)pyridin-3-yl)-5-cyclopropyl-3,4-dihydro-1,7-naphthyridine-1 (2H)-carboxamide] | 4.7 | 4
21 | O=C(Nc1cnc(-n2nccn2)c(Cl)c1)N1CC2(CCOC2)Oc2c(Br)cncc21 (centres unmarked) [Example 27, 8′—Bromo-N-(5-chloro-6-(2H-1,2,3-triazol-2-yl)pyridin-3-yl)-4,5-dihydro-2H-spiro [furan-3,2′-pyrido[4,3-b][1,4]oxazine]-4′ (3′H)-carboxamide] | 0.9 | 5
22 | O=C(Nc1cnc(-n2nccn2)c(C(F)(F)F)c1)N1CCCc2c(-c3ccccc3)cccc21 [Example 12, N-(6-(2H-1,2,3-Triazol-2-yl)-5-(trifluoromethyl)pyridin-3-yl)-5-phenyl-3,4-dihydroquinoline-1 (2H)-carboxamide] | 0.65 | 2.3
